According to PMC11129196 (Journal of Medicinal Chemistry, 2024):
≈ marks a conversion by molar mass, not a printed value. Entries after “also recorded” stand apart in the source; their conditions may differ. Blank lines part the entries; values can stand above or below the molecule they belong to.

Experiments:
[1] = solubility in the PDE-3 buffer solution; format: physicochemical
solubility assessment = format: physicochemical; conditions: monopotassium phosphate JP2 buffer, pH 6.8
[2] = rat pharmacokinetic assessment, IV; format: in vivo; conditions: dosed IV in rats
PDE-3 = conditions: cited from earlier work
reconstituted sarcomeres = assay: sarcomere component swap experiment; format: biochemical, bovine, rabbit; conditions: four myosin S1/thin filament combinations; 1 and 2 at 40 μM
[3] = test system: adult rat ventricular myocytes; assay: rat cardiomyocyte contractility assay; format: cell-based; conditions: 10 μM, 1 Hz, 37 °C, vs untreated cells
smooth muscle myosin = smooth muscle myosin (Gallus gallus, UniProt P10587); assay: smooth muscle myosin ATPase assay; format: biochemical, chicken
smooth muscle myosin, sequence (P10587 whole entry): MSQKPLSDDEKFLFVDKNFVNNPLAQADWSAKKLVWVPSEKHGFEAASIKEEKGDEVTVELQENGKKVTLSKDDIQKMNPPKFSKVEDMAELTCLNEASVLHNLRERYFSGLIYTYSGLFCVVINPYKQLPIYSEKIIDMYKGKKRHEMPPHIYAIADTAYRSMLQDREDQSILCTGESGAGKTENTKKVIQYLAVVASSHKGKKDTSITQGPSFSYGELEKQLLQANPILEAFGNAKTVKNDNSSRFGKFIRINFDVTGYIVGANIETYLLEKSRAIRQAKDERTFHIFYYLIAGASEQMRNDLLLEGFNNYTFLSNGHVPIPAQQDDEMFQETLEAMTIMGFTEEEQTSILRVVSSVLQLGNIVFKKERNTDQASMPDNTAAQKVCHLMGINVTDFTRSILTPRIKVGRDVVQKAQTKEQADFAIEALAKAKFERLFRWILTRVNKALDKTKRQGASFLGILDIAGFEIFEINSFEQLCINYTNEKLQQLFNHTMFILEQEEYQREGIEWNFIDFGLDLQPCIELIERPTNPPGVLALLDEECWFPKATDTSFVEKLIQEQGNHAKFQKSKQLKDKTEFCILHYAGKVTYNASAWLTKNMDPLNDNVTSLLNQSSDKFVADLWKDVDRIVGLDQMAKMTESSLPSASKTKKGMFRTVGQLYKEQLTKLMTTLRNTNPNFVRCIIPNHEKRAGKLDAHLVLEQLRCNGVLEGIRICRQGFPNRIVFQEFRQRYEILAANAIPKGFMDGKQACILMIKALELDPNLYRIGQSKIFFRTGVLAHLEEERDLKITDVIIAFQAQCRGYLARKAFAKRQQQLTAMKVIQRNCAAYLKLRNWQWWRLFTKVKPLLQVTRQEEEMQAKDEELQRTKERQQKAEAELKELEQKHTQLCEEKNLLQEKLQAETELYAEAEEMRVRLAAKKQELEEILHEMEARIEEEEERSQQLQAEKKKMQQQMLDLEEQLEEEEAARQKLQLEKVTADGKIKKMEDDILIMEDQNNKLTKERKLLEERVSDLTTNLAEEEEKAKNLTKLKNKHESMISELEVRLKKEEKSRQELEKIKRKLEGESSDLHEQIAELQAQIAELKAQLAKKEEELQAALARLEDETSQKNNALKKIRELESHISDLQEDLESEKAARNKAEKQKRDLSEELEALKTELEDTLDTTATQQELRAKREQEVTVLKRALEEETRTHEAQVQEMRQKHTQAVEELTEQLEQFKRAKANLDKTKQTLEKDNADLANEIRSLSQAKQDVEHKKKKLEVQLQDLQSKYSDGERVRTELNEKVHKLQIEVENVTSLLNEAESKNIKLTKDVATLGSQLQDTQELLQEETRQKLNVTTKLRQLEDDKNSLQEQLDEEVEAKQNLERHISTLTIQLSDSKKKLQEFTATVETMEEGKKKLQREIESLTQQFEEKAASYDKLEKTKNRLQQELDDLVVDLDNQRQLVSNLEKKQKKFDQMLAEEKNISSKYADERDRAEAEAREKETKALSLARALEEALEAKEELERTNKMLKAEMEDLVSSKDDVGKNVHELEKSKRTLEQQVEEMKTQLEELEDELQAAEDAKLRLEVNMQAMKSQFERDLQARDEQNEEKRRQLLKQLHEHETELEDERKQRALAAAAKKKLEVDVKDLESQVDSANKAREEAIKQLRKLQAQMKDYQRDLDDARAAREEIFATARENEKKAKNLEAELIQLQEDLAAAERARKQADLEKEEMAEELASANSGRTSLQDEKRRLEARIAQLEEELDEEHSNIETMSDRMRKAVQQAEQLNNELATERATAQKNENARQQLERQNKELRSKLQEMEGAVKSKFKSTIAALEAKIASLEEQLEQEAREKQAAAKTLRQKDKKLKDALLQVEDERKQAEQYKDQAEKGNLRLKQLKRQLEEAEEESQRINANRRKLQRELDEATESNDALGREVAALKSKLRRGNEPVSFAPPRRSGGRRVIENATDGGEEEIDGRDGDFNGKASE
smooth muscle myosin, sequence (P02607 whole entry partner): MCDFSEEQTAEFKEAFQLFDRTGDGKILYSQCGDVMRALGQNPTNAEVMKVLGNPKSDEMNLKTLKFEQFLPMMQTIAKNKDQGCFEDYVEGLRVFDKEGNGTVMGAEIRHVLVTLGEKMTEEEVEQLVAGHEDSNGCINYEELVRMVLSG
smooth muscle myosin, sequence (P02612 whole entry partner): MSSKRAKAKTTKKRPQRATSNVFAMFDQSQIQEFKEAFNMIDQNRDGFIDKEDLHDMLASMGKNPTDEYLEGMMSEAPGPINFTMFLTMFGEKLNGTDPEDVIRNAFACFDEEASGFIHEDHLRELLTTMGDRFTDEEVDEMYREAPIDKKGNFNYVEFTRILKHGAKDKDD

[4] = test system: adult rat ventricular myocytes; assay: cardiomyocyte calcium transient experiments; format: cell-based; conditions: 10 μM, Fura dye
fast skeletal myofibrils = fast skeletal myofibrils (Oryctolagus cuniculus, UniProt P02586+P02643); assay: fast skeletal myofibril ATPase assay; format: biochemical, rabbit
fast skeletal myofibrils, sequence (P02586 whole entry): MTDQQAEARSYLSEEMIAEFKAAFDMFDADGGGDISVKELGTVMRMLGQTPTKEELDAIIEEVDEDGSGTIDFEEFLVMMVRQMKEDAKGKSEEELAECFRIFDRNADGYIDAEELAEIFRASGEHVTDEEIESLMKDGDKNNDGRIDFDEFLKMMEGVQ
fast skeletal myofibrils, sequence (P02643 whole entry): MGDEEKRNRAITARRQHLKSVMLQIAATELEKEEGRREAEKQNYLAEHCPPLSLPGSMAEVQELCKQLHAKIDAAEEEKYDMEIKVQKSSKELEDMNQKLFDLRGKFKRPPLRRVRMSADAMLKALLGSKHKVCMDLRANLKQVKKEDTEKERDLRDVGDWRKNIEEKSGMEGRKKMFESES
fast skeletal myofibrils, sequence (P02641 whole entry partner): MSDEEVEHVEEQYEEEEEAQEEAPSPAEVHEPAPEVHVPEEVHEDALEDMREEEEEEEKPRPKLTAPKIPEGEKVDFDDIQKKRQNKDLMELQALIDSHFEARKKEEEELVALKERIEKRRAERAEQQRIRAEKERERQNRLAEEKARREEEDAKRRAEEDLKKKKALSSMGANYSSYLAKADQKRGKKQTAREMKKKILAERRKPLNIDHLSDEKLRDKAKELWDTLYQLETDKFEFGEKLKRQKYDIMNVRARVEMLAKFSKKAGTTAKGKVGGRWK

slow skeletal myofibrils = slow skeletal myofibrils (Bos taurus, UniProt P63315); assay: slow skeletal myofibril ATPase assay; format: biochemical, bovine
phosphodiesterase 3a = phosphodiesterase 3a (Homo sapiens, UniProt Q14432); assay: PDE-3 inhibition assay; format: biochemical
phosphodiesterase 3a, sequence (Q14432 whole entry): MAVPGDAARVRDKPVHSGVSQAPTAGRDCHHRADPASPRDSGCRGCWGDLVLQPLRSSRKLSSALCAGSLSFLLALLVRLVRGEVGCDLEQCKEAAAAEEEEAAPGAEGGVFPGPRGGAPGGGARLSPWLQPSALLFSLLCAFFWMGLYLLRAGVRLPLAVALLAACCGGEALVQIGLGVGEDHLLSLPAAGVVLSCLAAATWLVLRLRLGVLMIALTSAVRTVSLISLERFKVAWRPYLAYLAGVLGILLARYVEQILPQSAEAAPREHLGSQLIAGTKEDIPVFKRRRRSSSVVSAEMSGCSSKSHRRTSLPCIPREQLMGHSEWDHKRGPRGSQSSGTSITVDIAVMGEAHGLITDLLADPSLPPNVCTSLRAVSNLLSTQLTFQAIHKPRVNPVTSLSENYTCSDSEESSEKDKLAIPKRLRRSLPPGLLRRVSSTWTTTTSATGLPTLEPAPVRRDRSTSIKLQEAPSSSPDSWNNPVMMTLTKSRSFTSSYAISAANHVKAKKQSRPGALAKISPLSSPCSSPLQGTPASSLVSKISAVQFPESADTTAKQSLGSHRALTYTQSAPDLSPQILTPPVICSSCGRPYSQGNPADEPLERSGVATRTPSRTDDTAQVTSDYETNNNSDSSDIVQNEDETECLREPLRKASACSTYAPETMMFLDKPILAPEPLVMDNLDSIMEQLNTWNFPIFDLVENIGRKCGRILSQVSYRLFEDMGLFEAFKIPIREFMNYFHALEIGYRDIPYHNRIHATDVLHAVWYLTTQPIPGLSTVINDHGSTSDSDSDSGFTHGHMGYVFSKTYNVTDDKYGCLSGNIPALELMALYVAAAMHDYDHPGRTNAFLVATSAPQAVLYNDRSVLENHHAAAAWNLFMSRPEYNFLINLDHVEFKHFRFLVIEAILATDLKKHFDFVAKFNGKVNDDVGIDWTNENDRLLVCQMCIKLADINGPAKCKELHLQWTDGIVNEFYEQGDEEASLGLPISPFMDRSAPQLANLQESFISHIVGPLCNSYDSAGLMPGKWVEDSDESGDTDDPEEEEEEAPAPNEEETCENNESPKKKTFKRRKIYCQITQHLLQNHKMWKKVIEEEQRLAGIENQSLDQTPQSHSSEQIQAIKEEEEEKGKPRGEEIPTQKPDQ

solubility [1]: 1.2 µM (≈ 0.489 µg/mL)
Compound: Cn1c(=O)[nH]c(=O)c2cc(S(=O)(=O)Nc3ccc(-c4ccccc4)cc3)ccc21 [compound 5]

solubility at 12 h (solubility assessment): 6.7 µM (≈ 3.06 µg/mL)
clearance relative to hepatic blood flow [2]: < 25 % of hepatic blood flow (Qh)
Compound: CNc1cc2nc(C)[nH]c(=O)c2cc1S(=O)(=O)Nc1ccc(N2C[C@H](C)C[C@@H](C)C2)nc1 [compound 17, N-(6-((3R,5R)-3,5-Dimethylpiperidin-1-yl)pyridin-3-yl)-2-methyl-7-(methylamino)-4-oxo-3,4-dihydroquinazoline-6-sulfonamide]

smooth muscle myosin activity in words (smooth muscle myosin): did not activate
fast skeletal myofibril activity in words (fast skeletal myofibrils): did not activate
slow skeletal myofibril AC40 (slow skeletal myofibrils): <0.1 µM
Compound: O=c1[nH]c(=O)c2cc(S(=O)(=O)Nc3ccc(-c4ccccc4)cc3)ccc2[nH]1 [compound 3]

IC50 (phosphodiesterase 3a): 7 µM
Compound: C[C@@H]1C[C@@H](C)CN(c2ccc(NS(=O)(=O)c3ccc4c(c3)c(=O)[nH]c(=O)n4C)cn2)C1 [compound 13, N-(6-((3R,5R)-3,5-Dimethylpiperidin-1-yl)pyridin-3-yl)-1-methyl-2,4-dioxo-1,2,3,4-tetrahydroquinazoline-6-sulfonamide]

Second part, the molecule before the results:

Compound: C[C@@H]1CC(=O)NN=C1c1ccc(NN=C(C#N)C#N)cc1 [Levosimendan]
PDE-3 inhibition in words (PDE-3): single digit nanomolar PDE-3 inhibition

Compound: O=c1[nH]c2ccc(S(=O)(=O)Nc3ccc(-c4ccccc4)cc3)cc2[nH]1 [compound 1]
activation of reconstituted sarcomeres in words (reconstituted sarcomeres): Only the reconstituted sarcomeres that contain the cardiac thin filament showed activation

Compound: O=c1[nH]c(=O)c2cc(S(=O)(=O)Nc3ccc(N4CCCCCC4)cc3)ccc2[nH]1 [compound 2]
myocyte fractional shortening in words [3]: significantly increased myocyte fractional shortening
smooth muscle myosin activity in words (smooth muscle myosin): inactive; also recorded: did not activate
intracellular calcium concentrations in words [4]: without changing intracellular calcium concentrations
fast skeletal myofibril activity in words (fast skeletal myofibrils): inactive; also recorded: did not activate
activation of reconstituted sarcomeres in words (reconstituted sarcomeres): Only the reconstituted sarcomeres that contain the cardiac thin filament showed activation
